Tests used:
[1] = Moisture sorption analysis; format: physicochemical; conditions: between 10 and 80% relative humidity
Text: Various methods, including moisture sorption analysis, Karl Fischer analysis, X-ray powder diffraction (XRD) and ^13C solid-state nuclear magnetic resonance (SSNMR), are used to characterize SAM Classic Hydrate.
The SAM Classic Hydrate crystal structure retains approximately 6-11% water between 10 and 80% relative humidity. The hydrate rapidly equilibrates with the atmosphere, such that the water content observed by analytical techniques is a function of the relative humidity at which the sample was equilabrated.

B3 receptor = B3 receptor (Homo sapiens, UniProt P13945); conditions: single dose; as described in WO 98/09625; cited from earlier work
Chain of B3 receptor (P13945 whole entry): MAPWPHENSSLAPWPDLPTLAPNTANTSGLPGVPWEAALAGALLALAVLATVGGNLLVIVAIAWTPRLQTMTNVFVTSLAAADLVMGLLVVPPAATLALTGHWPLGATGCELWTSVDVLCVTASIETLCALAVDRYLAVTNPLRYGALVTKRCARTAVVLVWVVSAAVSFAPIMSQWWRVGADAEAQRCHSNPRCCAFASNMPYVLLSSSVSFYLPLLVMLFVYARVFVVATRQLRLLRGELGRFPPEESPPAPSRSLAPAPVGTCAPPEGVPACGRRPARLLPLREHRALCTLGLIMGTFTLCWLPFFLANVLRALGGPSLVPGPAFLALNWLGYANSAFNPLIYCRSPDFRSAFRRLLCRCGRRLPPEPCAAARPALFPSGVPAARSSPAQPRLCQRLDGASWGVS

SMILES | water retained by the crystal structure (moisture sorption profile) [1] | % of isoproterenol's response (B3 receptor)
CC(C)(Cc1ccc(Oc2ccc(C(N)=O)cn2)cc1)NC[C@H](O)COc1cccc2[nH]c3ccccc3c12.CC(C)(Cc1ccc(Oc2ccc(C(N)=O)cn2)cc1)NC[C@H](O)COc1cccc2[nH]c3ccccc3c12.O=C(O)CCC(=O)O [SAM Classic Hydrate, (S)-(3-pyridinecarboxamide,6-[4-[2-[[3-(9H-carbazol-4-yloxy)-2-hydroxypropyl]amino]-2-methylpropyl]phenoxy])-hemi-succinate salt] | 6-11% | 
CC(C)(Cc1ccc(Oc2ccc(C(N)=O)cn2)cc1)NC[C@H](O)COc1cccc2[nH]c3ccccc3c12 [SAM Classic free base] |  | at least 30%

From US7834187B2, “Crystalline variable hydrate of (S)-6-(4-(2-((3-9H-carbazol-4-yloxy)-2-hydroxypropyl)amino)-2-methylpropyl)phenoxy)-3-pyridinecarbox amide hemisuccinate salt” (Eli Lilly and Company, priority 2004, dated 2010)
